From patent US20040024024A1, “Aromatic sulfone hydroxamates and their use as protease inhibitors” (priority 2001, published 2004)
Counter-ions that a name gives are not always drawn.

How the values were obtained:
Test in all cases: In vitro MMP inhibition, IC50 determination (fluorogenic substrate I)
Type in all cases: biochemical
[1] = target: T1, Human recombinant MMP-2 (Homo sapiens, UniProt P08253)
T1 construct: made in house; host or cells: MMP-2-transfected p2AHT2 cells
T1 sequence (P08253 110-660): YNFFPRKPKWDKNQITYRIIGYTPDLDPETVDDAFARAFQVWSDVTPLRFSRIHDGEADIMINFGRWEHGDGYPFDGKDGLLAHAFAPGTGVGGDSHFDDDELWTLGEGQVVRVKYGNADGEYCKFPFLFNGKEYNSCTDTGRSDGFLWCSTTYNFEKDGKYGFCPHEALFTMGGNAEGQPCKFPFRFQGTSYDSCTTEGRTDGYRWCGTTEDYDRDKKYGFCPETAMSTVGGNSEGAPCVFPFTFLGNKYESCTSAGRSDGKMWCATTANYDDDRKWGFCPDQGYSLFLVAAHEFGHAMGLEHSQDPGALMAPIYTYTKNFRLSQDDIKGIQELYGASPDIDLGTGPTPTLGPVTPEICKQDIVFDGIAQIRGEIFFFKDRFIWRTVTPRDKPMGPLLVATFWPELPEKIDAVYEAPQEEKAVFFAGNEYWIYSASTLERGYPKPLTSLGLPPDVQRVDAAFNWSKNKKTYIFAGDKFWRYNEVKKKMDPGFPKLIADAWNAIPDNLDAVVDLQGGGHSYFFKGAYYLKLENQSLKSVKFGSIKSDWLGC
Method in brief: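 APMA- or trypsin-activated recombinant MMP-2 was incubated at room temperature with serial inhibitor dilutions in Tris buffer pH 7.5 (100 mM NaCl, 10 mM CaCl2, 0.05% Brij), with DMSO from 1% stocks, and 4 μM substrate I. Cleavage was read by fluorescence at 328/415 nm; IC50 was taken from the loss of fluorescence versus inhibitor concentration.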

[2] = target: T2, Human recombinant MMP-14 (Homo sapiens, UniProt P50281)
T2 construct: The catalytic domain enzyme was expressed in E. coli inclusion bodies, solubilized in urea; made in house
Method in brief: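 Catalytic-domain MMP-14, expressed in E. coli and refolded, activated with APMA or trypsin; compounds incubated at room temperature with 4 μM fluorogenic substrate I (MCA-PLGL-Dpa-AR-NH2) in Tris/NaCl/CaCl2 buffer, pH 7.5. Fluorescence at ex 328/em 415 nm; IC50 from loss of fluorescence versus inhibitor concentration.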

[3] = target: T3, Human recombinant MMP-13 (Homo sapiens, UniProt P45452)
T3 construct: made in house; host or cells: baculovirus / insect cells
Method in brief: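 Fluorescence at 415 nm (excitation 328 nm) reports Gly-Leu cleavage of 4 μM quenched methoxycoumarin peptide substrate I. Human recombinant MMP-13, activated by trypsin or APMA, was incubated at room temperature with varied inhibitor concentrations in pH 7.5 Tris/NaCl/CaCl2 buffer; IC50 derived from reduced fluorescence.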

[4] = target: T4, Human recombinant MMP-9 (Homo sapiens, UniProt P14780)
T4 construct: made in house; host or cells: MMP-9-transfected HT1080 cells (spent media)
T4 sequence (P14780 107-707 limits assumed): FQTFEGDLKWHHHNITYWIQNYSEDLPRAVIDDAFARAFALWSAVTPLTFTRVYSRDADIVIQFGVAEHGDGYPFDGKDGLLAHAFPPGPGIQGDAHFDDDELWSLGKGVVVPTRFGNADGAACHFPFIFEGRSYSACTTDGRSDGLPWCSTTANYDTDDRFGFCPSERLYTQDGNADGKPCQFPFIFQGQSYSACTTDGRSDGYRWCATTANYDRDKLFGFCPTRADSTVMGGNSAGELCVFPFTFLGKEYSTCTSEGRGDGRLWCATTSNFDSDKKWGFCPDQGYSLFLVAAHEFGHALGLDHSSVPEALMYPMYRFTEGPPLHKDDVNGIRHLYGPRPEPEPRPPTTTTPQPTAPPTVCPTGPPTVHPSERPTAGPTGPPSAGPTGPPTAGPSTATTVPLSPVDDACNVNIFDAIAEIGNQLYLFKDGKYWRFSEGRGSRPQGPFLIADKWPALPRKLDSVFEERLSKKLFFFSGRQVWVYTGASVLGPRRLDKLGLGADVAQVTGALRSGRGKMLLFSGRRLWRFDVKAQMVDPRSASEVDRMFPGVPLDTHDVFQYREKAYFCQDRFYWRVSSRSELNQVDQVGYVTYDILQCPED
Method in brief: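 MMP-9 proenzyme purified from transfected HT1080 cell media, activated with APMA or trypsin. Compound dilutions in pH 7.5 Tris/NaCl/CaCl2 buffer with 0.05% polyoxyethylene 23 lauryl ether, incubated at room temperature with 4 μM MCA/Dpa substrate I. IC50 from fluorescence loss (ex 328, em 415 nm) versus inhibitor concentration.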

[5] = target: T5, Human recombinant MMP-1 (Homo sapiens, UniProt P03956)
T5 construct: made in house; host or cells: MMP-1-transfected HT-1080 cells (spent media)
T5 sequence (P03956 100-469): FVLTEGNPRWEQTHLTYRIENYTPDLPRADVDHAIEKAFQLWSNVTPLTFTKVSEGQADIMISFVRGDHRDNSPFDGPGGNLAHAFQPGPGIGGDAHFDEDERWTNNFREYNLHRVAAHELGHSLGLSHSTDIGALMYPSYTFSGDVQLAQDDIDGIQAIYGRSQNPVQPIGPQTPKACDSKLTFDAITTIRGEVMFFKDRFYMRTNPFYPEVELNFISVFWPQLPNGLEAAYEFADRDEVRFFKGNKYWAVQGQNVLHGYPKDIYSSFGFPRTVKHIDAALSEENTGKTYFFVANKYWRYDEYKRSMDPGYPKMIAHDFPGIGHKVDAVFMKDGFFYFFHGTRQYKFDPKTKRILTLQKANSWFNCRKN
Method in brief: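 APMA- or trypsin-activated enzyme, purified from spent media of transfected HT-1080 cells, incubated at room temperature with 4 μM MCA-Pro-Leu-Gly-Leu-Dpa-Ala-Arg-NH2 and graded inhibitor in Tris buffer pH 7.5 (10 mM CaCl2, 0.05% Brij). Cleavage read by fluorescence (ex 328/em 415 nm); IC50 from fluorescence reduction versus inhibitor concentration.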

[6] = value outside parentheses (Ki in parenthesis)
[7] = substrate (I) 4 μM, room temperature, values not in parenthesis

IC50 [1, 6] [nM] | IC50 [2, 6] [nM] | IC50 [3, 6] [nM] | IC50 [4, 6] [nM] | IC50 [5, 6] [nM] | Structure (SMILES) | further results
110 | > 10000 | 15 | 45 | > 10000 | COc1ccc(CCCOc2ccc(S(=O)(=O)C3(C(=O)NO)CCOCC3)cc2)cc1OC [Example 466] | 
454 | > 10000 | 5.2 | > 10000 | > 10000 | CCCC(C)C(=O)NCCCOc1ccc(S(=O)(=O)C2(C(=O)NO)CCOCC2)cc1 (stereo not drawn) [Example 403] | 
1500 | > 10000 | 64 | > 10000 | > 10000 | COc1ccc(NC(=O)NCCOc2ccc(S(=O)(=O)C3(C(=O)NO)CCOCC3)cc2)cc1 [Example 418] | 
4.2 | 8000 | 0.5 | 500 | 2990 | O=C(CCCCOc1ccc(S(=O)(=O)C2(C(=O)NO)CCOCC2)cc1)c1cccs1 [Example 324] | 
 |  |  |  |  | CC(=O)Nc1cccc(OCCOc2ccc(S(=O)(=O)C3(C(=O)NO)CCOCC3)cc2)c1 [Example 670] | IC50 ([1]; value outside parentheses): 163 nM; IC50 ([2]; value outside parentheses): 2370 nM; IC50 ([3]; value outside parentheses): 14 nM; IC50 ([4]; value outside parentheses): 183 nM; IC50 ([5]; value outside parentheses): > 10000 nM
 |  |  |  |  | O=C(NO)C1(S(=O)(=O)c2ccc(OCCCSc3nc4ccccc4s3)cc2)CCOCC1 [Example 288] | IC50 ([1]; value outside parenthesis): 2.3 nM; IC50 ([2]; value outside parenthesis): > 10000 nM; IC50 ([3]; value outside parenthesis): 0.8 nM; IC50 ([4]; value outside parenthesis): 10.6 nM; IC50 ([5]; value outside parenthesis): > 10000 nM
135 | > 10000 | 4.5 | 139 | 8130 | N#Cc1ccc(N2CCN(CCCOc3ccc(S(=O)(=O)C4(C(=O)NO)CCOCC4)cc3)C2=O)cc1 [Example 307] | 
 |  |  |  |  | O=C(NO)C1(S(=O)(=O)c2ccc(OCCSc3nc4cc(Cl)ccc4s3)cc2)CCOCC1 [Example 281] | IC50 ([1]; value outside parenthesis): 70.4 nM; IC50 ([2]; value outside parenthesis): > 10000 nM; IC50 ([3]; value outside parenthesis): 1.3 nM; IC50 ([4]; value outside parenthesis): 276 nM; IC50 ([5]; value outside parenthesis): > 10000 nM
120 | > 10000 | 3.1 | 244 | > 10000 | Cc1oc(CCCOc2ccc(S(=O)(=O)C3(C(=O)NO)CCOCC3)cc2)nc1-c1ccccc1 [Example 317] | 
907 | > 10000 | 2.7 | > 10000 | > 10000 | O=C(NCCCOc1ccc(S(=O)(=O)C2(C(=O)NO)CCOCC2)cc1)c1cnc2ccccc2c1 [Example 390] | 
32 | > 10000 | 3 | 1980 | > 10000 | CC(C)(C)C1CCN(S(=O)(=O)CCCOc2ccc(S(=O)(=O)C3(C(=O)NO)CCOCC3)cc2)CC1 [Example 310] | 
131 | 9720 | 1.2 | 35.3 | > 10000 | Cc1cc(C(=O)NCCCOc2ccc(S(=O)(=O)C3(C(=O)NO)CCOCC3)cc2)no1 [Example 386] | 
 |  |  |  |  | O=C(NO)C1(S(=O)(=O)c2ccc(OCCOc3ccccc3)cc2)CCOCC1 [Example 667] | IC50 ([1]; value outside parentheses): 27.3 nM; IC50 ([2]; value outside parentheses): 2510 nM; IC50 ([3]; value outside parentheses): 9.42 nM; IC50 ([4]; value outside parentheses): 34.2 nM; IC50 ([5]; value outside parentheses): > 10000 nM
 |  |  |  |  | O=C(CCOc1ccc(S(=O)(=O)C2(C(=O)NO)CCOCC2)cc1)c1ccccc1 [Example 495] | IC50 ([1]; value outside parentheses): 1.9 nM; IC50 ([2]; value outside parentheses): 505 nM; IC50 ([3]; value outside parentheses): 1.7 nM; IC50 ([4]; value outside parentheses): 25.8 nM; IC50 ([5]; value outside parentheses): 815 nM
14.4 | > 10000 | 2.4 | 163 | 970 | CN(CCc1ccccc1)S(=O)(=O)CCCOc1ccc(S(=O)(=O)C2(C(=O)NO)CCOCC2)cc1 [Example 292] | 
16.8 | 6400 | 0.5 | 1120 | > 10000 | O=C(NO)C1(S(=O)(=O)c2ccc(OCCSc3nc4ccccc4s3)cc2)CCOCC1 [Example 341] | 
 |  |  |  |  | O=C1c2ccccc2C(=O)N1CCCOc1ccc(S(=O)(=O)C2(C(=O)NO)CCOCC2)cc1 [Example 21, 4-[[4-[3-(1,3-dihydro-1,3-dioxo2H-isoindol-2-yl)propoxy]phenyl]sulfonyl]tetrahydro-N-hydroxy-2H-pyran-4-carboxamide] | IC50 [1, 7]: 450 nM; IC50 [2, 7]: > 10000 nM; IC50 [3, 7]: 3.5 nM; IC50 [4, 7]: > 10000 nM; IC50 [5, 7]: > 10000 nM
 |  |  |  |  | COc1ccc(CCCCc2ccc(S(=O)(=O)C3(C(=O)NO)CCOCC3)cc2)cc1 [Example 256] | IC50 ([1]; value outside parenthesis): 0.1 nM; IC50 ([2]; value outside parenthesis): > 10000 nM; IC50 ([3]; value outside parenthesis): < 0.1 nM; IC50 ([4]; value outside parenthesis): 37.9 nM; IC50 ([5]; value outside parenthesis): > 10000 nM
 |  |  |  |  | COCCN1CCC(C(=O)NO)(S(=O)(=O)c2ccc(OCCCn3nnc(-c4ccc(C(F)(F)F)cc4)n3)cc2)CC1 [Example 103] | IC50 ([1]; value outside parenthesis): 85.8 nM; IC50 ([2]; value outside parenthesis): > 10000 nM; IC50 ([3]; value outside parenthesis): 0.4 nM; IC50 ([4]; value outside parenthesis): 1130 nM; IC50 ([5]; value outside parenthesis): > 10000 nM
41.2 | > 10000 | 2 | 2170 | > 10000 | O=C(CCCCOc1ccc(S(=O)(=O)C2(C(=O)NO)CCOCC2)cc1)c1cccc2ccccc12 [Example 342] | 
 |  |  |  |  | CC(C)c1ccc(C(=O)NNC(=O)CCCOc2ccc(S(=O)(=O)C3(C(=O)NO)CCOCC3)cc2)cc1 [Example 246] | IC50 ([1]; value outside parenthesis): 7.5 nM; IC50 ([2]; value outside parenthesis): > 10000 nM; IC50 ([3]; value outside parenthesis): 3 nM; IC50 ([4]; value outside parenthesis): 105 nM; IC50 ([5]; value outside parenthesis): 1170 nM
 |  |  |  |  | O=C(NO)C1(S(=O)(=O)c2ccc(OCCCn3nnc(-c4ccc(OC(F)(F)F)cc4)n3)cc2)CCOCC1 [Example 656] | IC50 ([1]; value outside parentheses): 408 nM; IC50 ([2]; value outside parentheses): > 10000 nM; IC50 ([3]; value outside parentheses): 0.66 nM; IC50 ([4]; value outside parentheses): 1180 nM; IC50 ([5]; value outside parentheses): > 10000 nM
656 | > 10000 | 1.8 | 3240 | > 10000 | O=C1c2cc(Cl)c(Cl)cc2C(=O)N1CCCOc1ccc(S(=O)(=O)C2(C(=O)NO)CCOCC2)cc1 [Example 333] | 
 |  |  |  |  | O=C(NO)C1(S(=O)(=O)c2ccc(OCCCSc3nc4ccccc4s3)cc2)CCN(CC2CC2)CC1 [Example 614] | IC50 ([1]; value outside parentheses): 1.8 nM; IC50 ([2]; value outside parentheses): 9440 nM; IC50 ([3]; value outside parentheses): 0.7 nM; IC50 ([4]; value outside parentheses): 8.5 nM; IC50 ([5]; value outside parentheses): > 10000 nM
61.8 | > 10000 | 4.4 | > 10000 | > 10000 | O=C(NO)C1(S(=O)(=O)c2ccc(OCCCCS(=O)(=O)C3CCCCC3)cc2)CCOCC1 [Example 348] | 
 |  |  |  |  | Cc1ccc(-c2noc(CCCOc3ccc(S(=O)(=O)C4(C(=O)NO)CCOCC4)cc3)n2)c(F)c1 [Example 218] | IC50 ([1]; value outside parenthesis): 40.4 nM; IC50 ([2]; value outside parenthesis): > 10000 nM; IC50 ([3]; value outside parenthesis): 1.4 nM; IC50 ([4]; value outside parenthesis): 2970 nM; IC50 ([5]; value outside parenthesis): > 10000 nM
 |  |  |  |  | CN(C)c1ccc(NC(=O)CCCCOc2ccc(S(=O)(=O)C3(C(=O)NO)CCOCC3)cc2)cc1 [Example 20, 4-[[4-[[5-[[4-(dimethylamino)-phenyl]amino]-5-oxopentyl]oxy]phenyl]sulfonyl]tetrahydro-N-hydroxy-2H-pyran-4-carboxamide, Monohydrochloride] | IC50 [1, 7]: 1.8 nM; IC50 [2, 7]: > 10000 nM; IC50 [3, 7]: 1.8 nM; IC50 [4, 7]: 498 nM; IC50 [5, 7]: > 10000 nM
